Assay results: PubChem BioAssay AID256 (DTP/NCI, 2004)
Where “and” joins values, the source holds several entries; their conditions need not be identical. Equal entries are not always repeated. Toxic doses and inconclusive results are not listed. How the source made its calls: active means survival T/C of 150% or more; inactive means T/C below 125% in these data.

Test system: CD2F1 mice, L1210 leukemia ip, survival T/C
Test: NCI In Vivo Anticancer Drug Screen. Data for tumor model L1210 Leukemia (intraperitoneal) in CD2F1 (CDF1) mice
Conditions: higher = longer survival
Outline: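 Activity against a transplanted murine tumor was judged by comparing the compound group with a vehicle group. The outcome in the treated animals was divided by that in the controls.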

[1] = endpoint: mean survival time, dose: 100.0 mg/kg/injection, schedule: Q01DX001 (ip), vehicle: saline with Tween-80
[2] = endpoint: mean survival time, dose: 100.0 mg/kg/injection, schedule: Q04DX003 (ip), vehicle: saline with Tween-80
[3] = endpoint: mean survival time, dose: 200.0 mg/kg/injection, schedule: Q01DX001 (ip), vehicle: saline with Tween-80
[4] = endpoint: mean survival time, dose: 200.0 mg/kg/injection, schedule: Q04DX003 (ip), vehicle: saline with Tween-80
[5] = endpoint: mean survival time, dose: 400.0 mg/kg/injection, schedule: Q01DX001 (ip), vehicle: saline with Tween-80
[6] = endpoint: mean survival time, dose: 400.0 mg/kg/injection, schedule: Q04DX003 (ip), vehicle: saline with Tween-80
[7] = endpoint: mean survival time, dose: 6.25 mg/kg/injection, schedule: Q01DX009 (ip), vehicle: saline
[8] = endpoint: mean survival time, dose: 12.5 mg/kg/injection, schedule: Q04DX003 (ip), vehicle: saline with Tween-80
[9] = endpoint: mean survival time, dose: 25.0 mg/kg/injection, schedule: Q04DX003 (ip), vehicle: saline with Tween-80
[10] = endpoint: mean survival time, dose: 75.0 mg/kg/injection, schedule: Q01DX001 (ip), vehicle: saline
[11] = endpoint: mean survival time, dose: 100.0 mg/kg/injection, schedule: Q01DX009 (ip), vehicle: saline with Tween-80
[12] = endpoint: mean survival time, dose: 200.0 mg/kg/injection, schedule: Q01DX009 (ip), vehicle: saline with Tween-80
[13] = endpoint: mean survival time, dose: 12.5 mg/kg/injection, schedule: Q01DX009 (ip), vehicle: Klucel (hydroxypropylcellulose) (HPC)
[14] = endpoint: mean survival time, dose: 25.0 mg/kg/injection, schedule: Q01DX009 (ip), vehicle: Klucel (hydroxypropylcellulose) (HPC)
[15] = endpoint: mean survival time, dose: 50.0 mg/kg/injection, schedule: Q01DX009 (ip), vehicle: Klucel (hydroxypropylcellulose) (HPC)
[16] = endpoint: mean survival time, dose: 400.0 mg/kg/injection, schedule: Q01DX009 (ip), vehicle: saline with Tween-80

Measured: T/C

CS(C)=O.O=C([O-])CC(=O)[O-].[NH-]CC(O)CN(Cc1ccccc1)CC(O)CN.[Pt+4] (stereo not given)
inactive: endpoint: median survival time, dose: 10.0 mg/kg/injection, schedule: Q04DX003 (ip), vehicle: water 107 % of control | endpoint: median survival time, dose: 20.0 mg/kg/injection, schedule: Q04DX003 (ip), vehicle: water 104 % of control | endpoint: median survival time, dose: 40.0 mg/kg/injection, schedule: Q04DX003 (ip), vehicle: water 104 % of control | endpoint: median survival time, dose: 50.0 mg/kg/injection, schedule: Q04DX003 (ip), vehicle: water 100 % of control | endpoint: median survival time, dose: 80.0 mg/kg/injection, schedule: Q04DX003 (ip), vehicle: water 108 % of control | endpoint: median survival time, dose: 100.0 mg/kg/injection, schedule: Q04DX003 (ip), vehicle: water 104 % of control | endpoint: median survival time, dose: 200.0 mg/kg/injection, schedule: Q04DX003 (ip), vehicle: water 117 % of control and 110 % of control | endpoint: median survival time, dose: 400.0 mg/kg/injection, schedule: Q04DX003 (ip), vehicle: water 114 % of control

Nc1ncccc1[N+](=O)[O-]
inactive: [1] 97 % of control | [2] 105 % of control | [3] 96 % of control | [4] 102 % of control | [5] 98 % of control | [6] 105 % of control

NNC(=S)N/N=C/c1ccccn1
inactive: endpoint: mean survival time, dose: 1.56 mg/kg/injection, schedule: Q01DX009 (ip), vehicle: saline 93 % of control and 98 % of control | endpoint: mean survival time, dose: 3.12 mg/kg/injection, schedule: Q01DX009 (ip), vehicle: saline 98 % of control and 100 % of control | endpoint: mean survival time, dose: 6.25 mg/kg/injection, schedule: Q01DX009 (ip), vehicle: saline with Tween-80 105 % of control | [7] 115 % of control | endpoint: mean survival time, dose: 6.25 mg/kg/injection, schedule: Q04DX003 (ip), vehicle: saline with Tween-80 118 % of control | endpoint: mean survival time, dose: 6.3 mg/kg/injection, schedule: Q01DX009 (oral), vehicle: saline 92 % of control | endpoint: mean survival time, dose: 12.5 mg/kg/injection, schedule: Q01DX009 (oral), vehicle: saline 98 % of control | [8] 98 % of control | [9] 102 % of control

CS(=O)(=O)N1CCCCC1
inactive: [10] 100 % of control

C1CSC(CC2SCCCS2)SC1
inactive: endpoint: mean survival time, dose: 50.0 mg/kg/injection, schedule: Q01DX001 (ip), vehicle: saline with Tween-80 97 % of control | [1] 94 % of control | [3] 96 % of control

CC(=O)c1ccc[n+](CCc2c[nH]c3ccccc23)c1
inactive: endpoint: mean survival time, dose: 12.5 mg/kg/injection, schedule: Q01DX009 (ip), vehicle: saline sonified 103 % of control | [8] 98 % of control | endpoint: mean survival time, dose: 25.0 mg/kg/injection, schedule: Q01DX009 (ip), vehicle: saline sonified 100 % of control | [9] 104 % of control | endpoint: mean survival time, dose: 50.0 mg/kg/injection, schedule: Q01DX009 (ip), vehicle: saline sonified 103 % of control | endpoint: mean survival time, dose: 50.0 mg/kg/injection, schedule: Q04DX003 (ip), vehicle: saline with Tween-80 103 % of control

COc1cccc(OC)c1OC(=O)Nc1c(Cl)cccc1Cl
inactive: endpoint: mean survival time, dose: 50.0 mg/kg/injection, schedule: Q01DX009 (ip), vehicle: saline with Tween-80 96 % of control | [11] 92 % of control | [12] 105 % of control

CCCCOC(=O)c1cc([N+](=O)[O-])cc([N+](=O)[O-])c1Sc1ncnc2nc[nH]c12
inactive: endpoint: mean survival time, dose: 0.63 mg/kg/injection, schedule: Q01DX005 (ip), vehicle: other 108 % of control | endpoint: mean survival time, dose: 1.25 mg/kg/injection, schedule: Q01DX005 (ip), vehicle: other 95 % of control | endpoint: mean survival time, dose: 2.5 mg/kg/injection, schedule: Q01DX005 (ip), vehicle: other 110 % of control | endpoint: mean survival time, dose: 5.0 mg/kg/injection, schedule: Q01DX005 (ip), vehicle: other 113 % of control | endpoint: mean survival time, dose: 9.4 mg/kg/injection, schedule: Q01DX005 (ip), vehicle: other 98 % of control | endpoint: mean survival time, dose: 10.0 mg/kg/injection, schedule: Q01DX005 (ip), vehicle: other 115 % of control | endpoint: mean survival time, dose: 18.8 mg/kg/injection, schedule: Q01DX005 (ip), vehicle: other 103 % of control | endpoint: mean survival time, dose: 37.5 mg/kg/injection, schedule: Q01DX005 (ip), vehicle: other 109 % of control | endpoint: mean survival time, dose: 75.0 mg/kg/injection, schedule: Q01DX005 (ip), vehicle: other 113 % of control

CC(=O)OCC(C)CCC(C)C(C)C1C(C)CC2C3CC=C4CC(OC(C)=O)CCC4(C)C3CCC21C (stereo not given)
inactive: [13] 104 % of control | [14] 101 % of control | [15] 101 % of control

COc1cc2c(c(OC)c1OC)-c1ccc(SC)c(=O)cc1C(NC(=S)NC1OC(COC(C)=O)C(OC(C)=O)C(OC(C)=O)C1OC(C)=O)CC2 (stereo not given)
inactive: [15] 86 % of control | endpoint: mean survival time, dose: 100.0 mg/kg/injection, schedule: Q01DX009 (ip), vehicle: Klucel (hydroxypropylcellulose) (HPC) 89 % of control | endpoint: mean survival time, dose: 200.0 mg/kg/injection, schedule: Q01DX009 (ip), vehicle: Klucel (hydroxypropylcellulose) (HPC) 101 % of control

CCOC(=O)CCCN(C)C(C)(C)C#N
inactive: [11] 103 % of control | [16] 108 % of control

CN(Cc1ccccc1)Cc1ccccc1
inactive: endpoint: mean survival time, dose: 100.0 mg/kg/injection, schedule: Q04DX002 (ip), vehicle: saline 100 % of control | endpoint: mean survival time, dose: 200.0 mg/kg/injection, schedule: Q04DX002 (ip), vehicle: saline 94 % of control

CC(=O)c1c(C(=O)O)c(=O)oc2cc(O)ccc12
inactive: [10] 98 % of control | endpoint: mean survival time, dose: 150.0 mg/kg/injection, schedule: Q01DX001 (ip), vehicle: saline 98 % of control | endpoint: mean survival time, dose: 300.0 mg/kg/injection, schedule: Q01DX001 (ip), vehicle: saline 98 % of control

OCC1OC(Nc2ncnc3nc[nH]c23)C(O)C1O (stereo not given)
inactive: [1] 108 % of control | [11] 96 % of control | [3] 94 % of control | [12] 108 % of control | [5] 92 % of control | [16] 100 % of control

O=C(c1ccc([N+](=O)[O-])cc1)C(Br)C(Br)c1ccncc1 (stereo not given)
inactive: [2] 95 % of control | [4] 97 % of control | [6] 103 % of control

C1CNCOC1
inactive: [7] 100 % of control | endpoint: mean survival time, dose: 12.5 mg/kg/injection, schedule: Q01DX009 (ip), vehicle: saline 95 % of control and 97 % of control | endpoint: mean survival time, dose: 25.0 mg/kg/injection, schedule: Q01DX009 (ip), vehicle: saline 100 % of control and 102 % of control | endpoint: mean survival time, dose: 50.0 mg/kg/injection, schedule: Q01DX009 (ip), vehicle: saline 101 % of control and 110 % of control | endpoint: mean survival time, dose: 100.0 mg/kg/injection, schedule: Q01DX009 (ip), vehicle: saline 106 % of control and 107 % of control | endpoint: mean survival time, dose: 200.0 mg/kg/injection, schedule: Q01DX009 (ip), vehicle: saline 100 % of control | endpoint: median survival time, dose: 6.25 mg/kg/injection, schedule: Q01DX009 (ip), vehicle: saline 100 % of control | endpoint: median survival time, dose: 12.5 mg/kg/injection, schedule: Q01DX009 (ip), vehicle: saline 102 % of control | endpoint: median survival time, dose: 25.0 mg/kg/injection, schedule: Q01DX009 (ip), vehicle: saline 107 % of control | endpoint: median survival time, dose: 50.0 mg/kg/injection, schedule: Q01DX009 (ip), vehicle: saline 107 % of control | endpoint: median survival time, dose: 100.0 mg/kg/injection, schedule: Q01DX009 (ip), vehicle: saline 112 % of control

Cc1nnc(NS(=O)(=O)c2ccc(N=Nc3nc4[nH]c(N)nc(=S)c4[nH]3)cc2)s1
inactive: [13] 110 % of control | [14] 116 % of control | [15] 122 % of control

O=C1c2ccccc2-c2ccc3c4ccc5c6c(ccc(c7ccc1c2c73)c64)C(=O)c1ccccc1-5
inactive: [11] 89 % of control | [2] 90 % of control | [12] 89 % of control | [4] 87 % of control | [16] 93 % of control | [6] 96 % of control

CC(=O)O.[Ag]
inactive: endpoint: mean survival time, dose: 5.0 mg/kg/injection, schedule: Q01DX001 (ip), vehicle: saline 93 % of control | endpoint: mean survival time, dose: 10.0 mg/kg/injection, schedule: Q01DX001 (ip), vehicle: saline 96 % of control | endpoint: mean survival time, dose: 20.0 mg/kg/injection, schedule: Q01DX001 (ip), vehicle: saline 97 % of control | endpoint: mean survival time, dose: 40.0 mg/kg/injection, schedule: Q01DX001 (ip), vehicle: saline 100 % of control | endpoint: mean survival time, dose: 80.0 mg/kg/injection, schedule: Q01DX001 (ip), vehicle: saline 100 % of control | endpoint: mean survival time, dose: 100.0 mg/kg/injection, schedule: Q01DX001 (ip), vehicle: saline 91 % of control

CCOC(=O)C(O)(CC)CCC(C)C (stereo not given)
inactive: [2] 105 % of control | [4] 86 % of control
